{
  "source": "patent US12539298B2",
  "about": "“Lobinaline N-oxides as positive allosteric modulators of the dopamine transporter with potential value in the treatment of substance abuse disorders” (University of Kentucky Research Foundation, priority 2019, dated 2026)",
  "key": {"DAT": {"biological_target": "DAT (Rattus norvegicus, UniProt P23977)", "sequence (P23977 whole entry)": "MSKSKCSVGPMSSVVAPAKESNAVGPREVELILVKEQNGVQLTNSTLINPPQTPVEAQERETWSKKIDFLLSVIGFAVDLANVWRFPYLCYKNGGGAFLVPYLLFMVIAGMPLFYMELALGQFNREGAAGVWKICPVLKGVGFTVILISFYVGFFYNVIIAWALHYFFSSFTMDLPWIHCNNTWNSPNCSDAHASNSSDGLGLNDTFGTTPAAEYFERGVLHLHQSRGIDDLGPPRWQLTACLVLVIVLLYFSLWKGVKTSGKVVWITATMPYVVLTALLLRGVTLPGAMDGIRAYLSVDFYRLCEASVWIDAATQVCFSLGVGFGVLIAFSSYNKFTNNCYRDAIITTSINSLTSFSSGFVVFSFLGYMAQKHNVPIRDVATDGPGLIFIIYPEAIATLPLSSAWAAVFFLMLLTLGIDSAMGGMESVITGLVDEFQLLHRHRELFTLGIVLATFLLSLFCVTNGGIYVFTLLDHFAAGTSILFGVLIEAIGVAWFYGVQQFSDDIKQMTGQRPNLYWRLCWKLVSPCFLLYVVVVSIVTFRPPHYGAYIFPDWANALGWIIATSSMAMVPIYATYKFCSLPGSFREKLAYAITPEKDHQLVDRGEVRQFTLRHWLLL", "experiment": "DA clearance in striatum of anesthetized rats by in vivo electrochemistry (high-speed chronoamperometry), Example 8", "parameters": "DA clearance in striatum and nucleus accumbens of urethane-anesthetized SD rats; from tissue; host or cells: striatum / nucleus accumbens of living anesthetized SD rats; species or system SD rats", "protocol": "DA clearance in striatum and nucleus accumbens of urethane-anesthetized SD rats was monitored by in vivo electrochemistry using high-speed chrono-amperometry [see 36]. After obtaining reproducible signals for locally applied DA, vehicle or drug was applied slowly over 10-30 sec, then 30-60 sec later the next application of DA was made, with subsequent DA applications at 5-minute intervals for 25-30 min. The DA kinetic data from each animal was analyzed using FAST software (Quanteon). […] These effects were no longer seen 3-5 minutes after lobinaline ejection. They are consistent with simple competitive inhibition of the DAT by lobinaline. […] However, the lobinaline N-oxides produce different effects. Representative data from lobinaline N-oxide, at the same concentration used for lobinaline (1 mM in 250 nl medium) are shown in FIG. 6. […] This is entirely consistent with effects on synaptosomal [3H]DA uptake in vitro above, and probably represents competitive inhibition. However, after exposure to the N-oxide there is a significant and prolonged (c20 min) increase in the first order rate of decay of the DA peak. […] This increase in rate constant induced by the N-oxide varied from 20× to 2× at increasing depths in the DV gradient.\nThe uptake rate of locally applied DA (˜100 nl; 200 μM) was measured before and 1 minute after local application of lobinaline (˜250 nl; 1 mM), 403 (˜300 nl; 250 μM) or 419 (˜300 nl; 250 μM) (FIGS. 7, 8, and 9)."}, "[1]": {"experiment": "conditioned place preference (abuse potential)", "assay_type": "in vivo, SD rats", "from_the_text": "In conditioned place preference a chamber with distinct cues is repeatedly paired with administration of the test drug. A second chamber is repeatedly paired with a control injection. After conditioning, a test phase allows the rat to move between the chambers. If a drug is “rewarding” (i.e. has abuse potential), the rat spends more time in the drug-associated chamber. If it is aversive, the opposite result is obtained.\nMethods: 6 male and 6 female SD rats were used for each drug and dose. Test drugs (5 or 25 mg/kg lobinaline, or 25 mg/Kg of lobinaline bi-N-oxide S.C) were paired with the “less preferred” compartment (standard for drugs that may be weakly reinforcing) for 20 minutes. On the next day, rats received a control (DMSO/saline) injection and were placed in the preferred chamber. After three repeated pairings (test and control), the subjects were given access to both chambers and the time spent in each compartment was recorded and scored by an observer blind to treatment. Analysis was by two way ANOVA with post hoc Bonnferoni with significance set at p<0.05. Results. Most animals spent most of the test period in the compartment originally preferred in the drug-free state, and there were no significant differences between drug and vehicle controls."}, "nicAChRs": {"biological_target": "nicAChRs", "experiment": "displacement of [3H]epibatidine from rat brain homogenates", "assay_type": "binding"}},
  "data": [
    {"smiles": "CN1CCCC2C(c3ccccc3)C(C3=NCCCC3)C(c3ccccc3)CC21", "note": "(stereo not drawn) [lobinaline]", "values": [
      {"measurement": "effect on DA clearance rate", "setting": "DAT; 1-minute post-application", "value": "significantly decreased"},
      {"measurement": "effect on DA peak", "setting": "DAT; local application 1 mM, 250 nl", "value": "non-significantly decreased"},
      {"measurement": "time after ejection at which effects are no longer seen / DA clearance returns to normal", "setting": "DAT; local ejection in striatum", "value": "3 to 5", "unit": "min"},
      {"measurement": "reduction in DA clearance", "setting": "DAT; striatum, 1 minute after local application (lobinaline ~250 nl 1 mM; 403, 419 ~300 nl 250 μM), FIGS. 7-9", "value": 50, "unit": "%"},
      {"measurement": "overt toxicity", "setting": "[1]; after 3 repeated drug administrations", "value": "no signs of overt toxicity"},
      {"measurement": "sedation or locomotor activation", "setting": "[1]; lobinaline 5 or 25 mg/kg, bi-N-oxide 25 mg/Kg S.C", "value": "no sedation or locomotor activation"},
      {"measurement": "conditioned place preference or aversion", "setting": "[1]; lobinaline 5 or 25 mg/kg, bi-N-oxide 25 mg/Kg S.C, three pairings", "value": "neither lobinaline nor the lobinaline bi-N-oxide produced conditioned place preference or aversion"},
      {"measurement": "Ki", "setting": "nicAChRs", "value": 16, "unit": "µM"},
      {"measurement": "character of [3H]epibatidine displacement", "setting": "nicAChRs", "value": "monophasically displaced"}
    ]}
  ]
}
